Results published in US20160221974A1, “SODIUM CHANNEL MODULATORS FOR THE TREATMENT OF PAIN AND DIABETES” (CHROMOCELL CORPORATION, priority 2013, published 2016).

Experiments:
[1] = tested on: rat streptozotocin-induced model for diabetes; assay: Evaluation of Anti-Diabetic Effect in In Vivo Model of Diabetes (chronic dosing, STZ rats)
Procedure: 250-350 g male Sprague-Dawley rats from appropriate animal resources were used. Type I diabetes was induced by a single injection, (intraperitoneally, intravenously or intramuscularly) of 50-100 mg/kg of streptozotocin (STZ, Sigma Chemicals, St. Louis, Mo. or VWR) freshly dissolved in sodium citrate (0.01 M, pH 4.5). Sham animals were given either saline or same vehicle injection. Following a wait time of about two days, inducement of diabetes was confirmed in STZ-injected rats by measuring the plasma glucose concentrations in blood samples from the tail vein after a fast of 6 hours. The glucose level was assayed using a mini glucose monitor (kit for AlphaTRAK 2 meter, available from Abbott Laboratories). Screening for hyperglycemia in STZ-injected animals was done, with only animals with a final blood glucose level ≧300 mg/dl being selected for the study. Glucose levels in the sham animals remained normal. Other parameters (water intake, food intake, and bodyweight) were monitored before the treatment with a test compound and after the cessation of the treatment.
A Compound provided herein is tested in the rat STZ model of diabetes by chronic administration of the Compound for at least 7 days to evaluate analgesic and antidiabetic effects of the Compound. The analgesic effect of the Compound can be evaluated using behavioral tests (e.g., von Frey test, plantar test, and paw pressure test described herein below). The anti-diabetic effect of the Compound can be evaluated based on the improvement in the glucose level, food intake, water intake in the compound treated group compared to the untreated vehicle group and the normal, non-diabetic sham control group.
Diabetes mellitus was induced in rats as described in paragraph [00327] above.
The baseline glucose levels, daily food and water intake and behavioral tests (von Frey, paw pressure and plantar tests) were measured for each animal once weekly for 28 weeks, and once every 2-4 weeks for an additional 28-30 weeks. At a selected week (started from week 6) for a compound test, diabetic rats were divided into two test groups: a vehicle control group and a test compound treated group (n=10 each group). A sham group (saline only without STZ i.p. injection, n=10) was added as a normal, non-diabetic control group. To minimize animal stress associated with repeated daily handling, the compound treated diabetic group of animals received the test compound at a daily dose of 60 mg/kg in their drinking water containing 2% PEG600 and 1% glycofurol (the test compound concentration in the drinking water was based on the individual animal's average daily water consumption as determined the pre-dosing period, which averaged 0.1-0.11 mg/ml). The vehicle control group received drinking water containing 2% PEG600 and 1% glycofurol without the test compound. The treatment continued for 9 days. On day 10 drinking water with test compound or vehicle (2% PEG600 and 1% glycofurol) was replaced with plain drinking water in all groups. The monitoring of glucose levels, food and water intake as well as behavior tests continued for additional 28-30 weeks. […] A gradual, significant reversal of up to 90% of mechanical allodynia (von Frey test) was achieved after 9 days of treatment.
FIGS. 1-3 show food intake, glucose level, and water intake, respectively, for the vehicle control group, the test compound treated group (compound 49, 60 mg/kg/day), and the sham group. […] The significant reduction of food intake, glucose level, and water intake of the compound treated group compared to the vehicle control group continues through week 52. […] Since the standard deviation in the sham groups are less than 5%, no error bars are shown.

[2] = molecular target: T1, NaV1.5 (Homo sapiens, UniProt Q14524); assay: Patchliner Electrophysiological In-Vitro Assay (NaV1.5); format: cell-based; conditions: Patchliner patch clamp, HEK293
T1 construct: expressed in transfected cells
T1 sequence (Q14524 whole entry): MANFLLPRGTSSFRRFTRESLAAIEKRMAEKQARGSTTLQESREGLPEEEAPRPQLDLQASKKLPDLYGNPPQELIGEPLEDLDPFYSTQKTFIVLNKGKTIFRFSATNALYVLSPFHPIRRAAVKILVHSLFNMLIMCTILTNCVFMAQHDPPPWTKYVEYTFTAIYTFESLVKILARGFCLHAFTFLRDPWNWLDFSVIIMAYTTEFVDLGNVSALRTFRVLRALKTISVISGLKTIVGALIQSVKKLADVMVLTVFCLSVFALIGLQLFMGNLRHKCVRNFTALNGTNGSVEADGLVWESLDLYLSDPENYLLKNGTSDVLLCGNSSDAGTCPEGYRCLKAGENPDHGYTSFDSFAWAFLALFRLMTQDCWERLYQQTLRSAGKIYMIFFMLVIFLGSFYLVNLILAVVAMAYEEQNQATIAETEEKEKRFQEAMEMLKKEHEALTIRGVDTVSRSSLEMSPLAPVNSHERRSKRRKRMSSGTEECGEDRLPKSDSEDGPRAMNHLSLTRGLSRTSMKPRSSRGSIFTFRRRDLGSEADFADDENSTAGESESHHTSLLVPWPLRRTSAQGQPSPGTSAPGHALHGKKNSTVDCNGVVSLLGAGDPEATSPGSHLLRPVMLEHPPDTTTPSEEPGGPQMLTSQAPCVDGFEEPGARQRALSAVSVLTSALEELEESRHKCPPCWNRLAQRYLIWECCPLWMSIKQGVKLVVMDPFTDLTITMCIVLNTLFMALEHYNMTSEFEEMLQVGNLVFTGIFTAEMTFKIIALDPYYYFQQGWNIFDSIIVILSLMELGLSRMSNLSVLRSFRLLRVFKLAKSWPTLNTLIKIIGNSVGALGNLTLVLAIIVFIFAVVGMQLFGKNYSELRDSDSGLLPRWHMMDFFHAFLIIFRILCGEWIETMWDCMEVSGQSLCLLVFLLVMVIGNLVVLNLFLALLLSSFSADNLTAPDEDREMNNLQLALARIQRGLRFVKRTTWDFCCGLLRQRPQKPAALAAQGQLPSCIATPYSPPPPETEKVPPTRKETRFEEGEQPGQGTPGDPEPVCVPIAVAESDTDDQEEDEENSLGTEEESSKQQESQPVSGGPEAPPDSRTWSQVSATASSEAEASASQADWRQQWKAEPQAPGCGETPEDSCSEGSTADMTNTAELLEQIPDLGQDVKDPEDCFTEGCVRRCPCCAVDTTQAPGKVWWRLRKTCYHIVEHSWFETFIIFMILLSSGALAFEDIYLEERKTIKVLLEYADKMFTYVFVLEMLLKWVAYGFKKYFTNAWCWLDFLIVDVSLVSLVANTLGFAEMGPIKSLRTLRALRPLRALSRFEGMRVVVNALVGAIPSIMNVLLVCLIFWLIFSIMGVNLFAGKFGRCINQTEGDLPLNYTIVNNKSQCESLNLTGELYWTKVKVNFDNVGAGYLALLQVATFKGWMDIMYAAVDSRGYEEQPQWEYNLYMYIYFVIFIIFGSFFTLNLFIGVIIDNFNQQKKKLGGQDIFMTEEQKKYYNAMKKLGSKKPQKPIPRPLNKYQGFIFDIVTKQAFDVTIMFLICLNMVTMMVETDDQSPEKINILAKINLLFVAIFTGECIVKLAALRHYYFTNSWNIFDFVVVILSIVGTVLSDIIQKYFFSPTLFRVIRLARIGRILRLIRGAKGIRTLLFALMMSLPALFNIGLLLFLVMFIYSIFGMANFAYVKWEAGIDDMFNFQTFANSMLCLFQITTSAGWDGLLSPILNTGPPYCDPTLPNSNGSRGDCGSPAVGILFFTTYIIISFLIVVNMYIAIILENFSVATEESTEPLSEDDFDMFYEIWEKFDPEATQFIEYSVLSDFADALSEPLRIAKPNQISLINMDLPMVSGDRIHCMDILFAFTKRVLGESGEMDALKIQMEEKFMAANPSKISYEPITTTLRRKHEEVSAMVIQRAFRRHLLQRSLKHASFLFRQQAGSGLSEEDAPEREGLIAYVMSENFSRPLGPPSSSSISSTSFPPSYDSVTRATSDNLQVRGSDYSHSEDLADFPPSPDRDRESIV
Procedure: The recording of sodium current from stable HEK293 cell lines expressing NaV1.7 or NaV1.5 was done on a Patchliner® instrument, Nanion Technologies. The Patchliner® is a fully automated bench-top patch clamp platform and can record simultaneously from up to eight single cells with GΩ seals.
For patch-clamp experiments, cells were grown under standard culturing conditions in Dulbecco's Modified Eagles medium supplemented with 10% fetal bovine serum, glutamine and HEPES. Cells were harvested and kept in suspension for up to 4 hours with no significant change in quality or ability to patch. Whole cell patch clamp recordings were conducted according to Nanion's standard procedure for the Patchliner®. Experiments were conducted at room temperature.
Voltage protocols were designed to establish: 1) peak current amplitude (Imax), 2) test potential (Vmax) and 3) half-inactivation potential (V1/2) for each of the eight individual cells. To determine V1/2, a standard steady-state inactivation protocol was executed using a series of fifteen 500 ms depolarizing pre-pulses in 10 mV increments (starting at −130 mV) and immediately followed by a 10 ms test pulse to Vmax. To estimate test compound affinity to the inactivated state of sodium channel (Ki), the holding potential for each cell was set automatically to the V1/2 calculated from a steady-state inactivation data. The current was activated with the following voltage protocol: holding at V1/2 for 2-5 seconds, return to the −120 mV for 5-10 ms to relieve fast inactivation, stepping to test potential (Vmax) for 10-20 ms. This voltage protocol was repeated every 10 seconds to establish the baseline with 2-3 buffer additions followed by the test compound addition. The dose-dependent inhibition was analyzed using Nanion's Data Analysis Package.

[3] = molecular target: T2, NaV1.7 (Homo sapiens, UniProt Q15858); assay: Patchliner Electrophysiological In-Vitro Assay (NaV1.7); format: cell-based; conditions: Patchliner patch clamp, HEK293, holding at V1/2
T2 construct: expressed in transfected cells
T2 sequence (Q15858 whole entry): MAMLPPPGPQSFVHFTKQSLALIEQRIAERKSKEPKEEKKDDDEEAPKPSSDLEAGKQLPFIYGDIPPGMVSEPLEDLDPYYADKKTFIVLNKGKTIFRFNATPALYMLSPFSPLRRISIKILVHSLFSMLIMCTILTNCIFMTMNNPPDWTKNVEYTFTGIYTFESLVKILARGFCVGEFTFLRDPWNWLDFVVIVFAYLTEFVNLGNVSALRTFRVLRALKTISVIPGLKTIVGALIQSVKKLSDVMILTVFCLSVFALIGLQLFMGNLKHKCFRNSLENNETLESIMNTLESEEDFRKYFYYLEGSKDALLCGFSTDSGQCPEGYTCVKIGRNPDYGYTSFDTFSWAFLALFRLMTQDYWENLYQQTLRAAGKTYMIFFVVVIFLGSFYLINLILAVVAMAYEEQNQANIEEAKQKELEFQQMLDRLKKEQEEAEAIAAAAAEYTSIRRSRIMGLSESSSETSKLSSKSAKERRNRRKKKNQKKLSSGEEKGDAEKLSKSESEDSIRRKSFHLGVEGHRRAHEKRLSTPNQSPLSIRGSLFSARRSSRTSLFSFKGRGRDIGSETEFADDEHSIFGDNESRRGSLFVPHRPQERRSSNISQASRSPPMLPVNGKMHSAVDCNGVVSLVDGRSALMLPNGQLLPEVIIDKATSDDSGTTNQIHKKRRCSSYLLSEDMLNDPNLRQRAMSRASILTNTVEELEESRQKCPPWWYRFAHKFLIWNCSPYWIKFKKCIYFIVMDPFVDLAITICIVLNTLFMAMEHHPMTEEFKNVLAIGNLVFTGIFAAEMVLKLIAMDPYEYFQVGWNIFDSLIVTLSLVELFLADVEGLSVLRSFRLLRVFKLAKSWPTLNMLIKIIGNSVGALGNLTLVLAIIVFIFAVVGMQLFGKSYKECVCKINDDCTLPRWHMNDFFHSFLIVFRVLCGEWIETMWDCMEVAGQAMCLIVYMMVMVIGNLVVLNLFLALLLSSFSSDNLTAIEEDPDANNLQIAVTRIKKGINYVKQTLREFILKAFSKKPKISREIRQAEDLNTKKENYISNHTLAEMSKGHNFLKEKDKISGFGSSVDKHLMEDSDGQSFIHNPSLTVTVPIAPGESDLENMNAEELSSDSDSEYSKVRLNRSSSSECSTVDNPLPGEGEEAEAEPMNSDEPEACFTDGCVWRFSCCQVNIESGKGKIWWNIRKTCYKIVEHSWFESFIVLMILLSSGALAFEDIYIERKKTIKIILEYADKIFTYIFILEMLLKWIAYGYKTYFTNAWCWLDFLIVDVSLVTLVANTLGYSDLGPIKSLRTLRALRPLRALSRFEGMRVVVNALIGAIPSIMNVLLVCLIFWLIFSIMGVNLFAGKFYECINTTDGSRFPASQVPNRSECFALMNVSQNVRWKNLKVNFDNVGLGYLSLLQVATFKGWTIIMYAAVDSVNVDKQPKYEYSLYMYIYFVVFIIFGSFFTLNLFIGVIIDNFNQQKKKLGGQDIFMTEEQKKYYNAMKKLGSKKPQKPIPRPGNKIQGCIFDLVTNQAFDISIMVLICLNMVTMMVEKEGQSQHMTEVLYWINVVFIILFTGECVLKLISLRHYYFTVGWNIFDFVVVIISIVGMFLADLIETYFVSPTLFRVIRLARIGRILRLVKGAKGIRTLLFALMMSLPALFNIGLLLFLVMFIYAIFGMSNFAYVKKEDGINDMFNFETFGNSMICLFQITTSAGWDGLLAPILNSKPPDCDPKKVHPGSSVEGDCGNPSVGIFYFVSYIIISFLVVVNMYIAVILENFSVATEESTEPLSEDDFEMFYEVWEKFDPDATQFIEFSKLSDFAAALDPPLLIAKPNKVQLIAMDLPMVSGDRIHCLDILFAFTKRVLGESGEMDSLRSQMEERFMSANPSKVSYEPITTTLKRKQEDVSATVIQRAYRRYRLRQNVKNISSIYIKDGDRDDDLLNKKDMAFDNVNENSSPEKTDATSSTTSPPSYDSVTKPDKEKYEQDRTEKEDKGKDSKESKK
T2 sequence (Q07699 19-218 partner): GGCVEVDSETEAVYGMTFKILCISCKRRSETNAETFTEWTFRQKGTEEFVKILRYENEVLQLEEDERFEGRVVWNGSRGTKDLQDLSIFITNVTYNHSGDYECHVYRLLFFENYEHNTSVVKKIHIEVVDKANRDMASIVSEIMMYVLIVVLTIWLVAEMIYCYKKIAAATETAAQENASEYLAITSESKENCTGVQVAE
T2 sequence (O60939 30-215 partner): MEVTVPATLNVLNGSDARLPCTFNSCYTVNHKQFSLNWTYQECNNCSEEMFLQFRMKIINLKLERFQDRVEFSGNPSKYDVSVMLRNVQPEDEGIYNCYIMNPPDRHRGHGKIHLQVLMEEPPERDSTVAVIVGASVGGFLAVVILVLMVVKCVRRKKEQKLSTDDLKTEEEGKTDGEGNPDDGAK
Method in brief: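 Automated whole-cell patch clamp at room temperature on HEK293 cells stably expressing hNav1.7 with β1 and β2 subunits. Inactivated-state Ki: cells held at their own V1/2, stepped to −120 mV for 5–10 ms, then to Vmax for 10–20 ms, repeated every 10 s; dose-dependent inhibition analysed.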

[4] = diabetic rats, 60 mg/kg/day in drinking water for 9 days
[5] = measured on day 11, two days after compound withdrawal

How did the food intake ([1]; diabetic rats, 60 mg/kg/day for 9 days, compared to vehicle control group, continues through week 52 (FIG. 1)) turn out when `NC(=O)CNCCCc1cc(Cl)ccc1Oc1cc(F)c(S(=O)(=O)Nc2cscn2)cc1Cl` [Compound 49, 2-((3-(5-chloro-2-(2-chloro-5-fluoro-4-(N-(thiazol-4-yl)sulfamoyl)phenoxy)phenyl)propyl)amino)acetamide] was run?
Its food intake is “significantly reduced”.

What about the glucose level ([1]; diabetic rats, 60 mg/kg/day for 9 days, compared to vehicle control group, continues through week 52 (FIG. 2)) of the same compound?
Its glucose level is “significantly reduced”.

What about the water intake ([1]; diabetic rats, 60 mg/kg/day for 9 days, compared to vehicle control group, continues through week 52 (FIG. 3)) of the same compound?
The water intake was “significantly reduced”.

What about the “mechanical pain (paw pressure test)” value [1, 4] of the same compound?
Its value is “rapid and sustained improvement”.

And the “thermal pain (plantar test)” value [1, 4]?
The value was “rapid and sustained improvement”.

And the tachyphylaxis ([1]; diabetic rats, 60 mg/kg/day in drinking water for 9 days, paw pressure and plantar tests)?
The tachyphylaxis was “no tachyphylaxis”.

What about the “reversal of mechanical allodynia (von Frey test)” value ([1]; diabetic rats, 60 mg/kg/day in drinking water, after 9 days of treatment) of the same compound?
Its value is “up to 90%”.

What about the “time allodynia threshold (von Frey test) stayed significantly above the pretreatment level baseline after compound withdrawal” value ([1]; diabetic rats, after 9 days of 60 mg/kg/day) of the same compound?
Its value is “up to 5 days”.

And the “general appearance and/or health” value ([1]; diabetic rats, after treatment with 60 mg/kg/day stopped on day 9)?
The value was “improvements in general appearance and/or health”.

What about the “paw pressure test threshold after compound withdrawal” value [1, 5] of the same compound?
The value was “returned to the pretreatment baseline”.

What about the “plantar test threshold after compound withdrawal” value [1, 5] of the same compound?
Its value is “returned to the pretreatment baseline”.

What about the IC50 [2] of the same compound?
Its IC50 is over 10 µM.

And the IC50 [3]?
The IC50 was under 0.1 µM.
